The source of these data is patent US20040044000A1, “Isoquinoline derivatives as matrix metalloproteinase inhibitors” (priority 2002, published 2004).

The structures appear in SMILES notation.

The first experiment deals with T1, MMP-13 catalytic domain (MMP-13CD) (Homo sapiens, UniProt P45452).
T1 construct: use the catalytic domain of the MMP-13 enzyme, namely matrix metalloproteinase-13 catalytic domain (“MMP-13CD”), rather than the corresponding full-length enzyme
Description: Inhibition of MMP-13 catalytic domain (thiopeptolide substrate hydrolysis). The class given is biochemical. Particulars: Biological Table 1; read-out: MMP-13CD IC50. From the text: The assays measure the amount by which a test compound reduces the hydrolysis of a thiopeptolide substrate catalyzed by a matrix metalloproteinase enzyme. Such assays are described in detail by Ye et al., in Biochemistry, 1992;31(45):11231-11235, which is incorporated herein by reference. One such assay is described below in Biological Method 1.
Some of the particular methods described below use the catalytic domain of the MMP-13 enzyme, namely matrix metalloproteinase-13 catalytic domain (“MMP-13CD”), rather than the corresponding full-length enzyme, MMP-13. It has been shown previously by Ye Qi-Zhuang, Hupe D., and Johnson L. (Current Medicinal Chemistry, 1996;3:407-418) that inhibitor activity against a catalytic domain of an MMP is predictive of the inhibitor activity against the respective full-length MMP enzyme.
Thiopeptolide substrates show virtually no decomposition or hydrolysis at or below neutral pH in the absence of a matrix metalloproteinase enzyme. A typical thiopeptolide substrate commonly utilized for assays is Ac-Pro-Leu-Gly-thioester-Leu-Leu-Gly-OEt. A 100 μL assay mixture will contain 50 mM of N-2-hydroxyethylpiperazine-N′-2-ethanesulfonic acid buffer (“HEPES,” pH 7.0), 10 mM CaCl2, 100 μM thiopeptolide substrate, and 1 mM 5,5′-dithio-bis-(2-nitro-benzoic acid) (DTNB). The thiopeptolide substrate concentration may be varied, for example from 10 to 800 μM to obtain Km and Kcat values. The change in absorbance at 405 nm is monitored on a Thermo Max microplate reader (molecular Devices, Menlo Park, Calif.) at room temperature (22° C.). The calculation of the amount of hydrolysis of the thiopeptolide substrate is based on E412=13600 M^−1 cm^−1 for the DTNB-derived product 3-carboxy-4-nitrothiophenoxide. Assays are carried out with and without matrix metalloproteinase inhibitor compounds, and the amount of hydrolysis is compared for a determination of inhibitory activity of the test compounds.
Test compounds were evaluated at various concentrations in order to determine their respective IC50 values, the micromolar concentration of compound required to cause a 50% inhibition of catalytic activity of the respective enzyme.
Turning to `O=C(NCCn1cccc1)c1ccc2ccn(Cc3ccc(-c4nn[nH]n4)cc3)c(=O)c2c1` [Example 63, 1-oxo-2-[4-(2H-tetrazol-5-yl)benzyl]-1,2-dihydroisoquinoline-7-carboxylic Acid (2-pyrrol-1-yl-ethyl)amide], the IC50 turned out to be 49 µM.

Turning to `Cc1ccc(CNC(=O)c2ccc3ccn(Cc4ccc(C#N)cc4)c(=O)c3c2)cc1` [Example 39, 2-(4-cyanobenzyl)-1-oxo-1,2-dihydro-isoquinoline-7-carboxylic Acid 4-methylbenzylamide], the IC50 is more than 10 µM.

As for `N#Cc1ccc(Cn2ccc3ccc(C(=O)NCc4cncnc4)cc3c2=O)cc1` [Example 38, 2-(4-cyanobenzyl)-1-oxo-1,2-dihydro-isoquinoline-7-carboxylic Acid (pyrimidin-5-ylmethyl)amide], the IC50 is 17 µM.

On to `Cc1ccc(CNC(=O)c2ccc3ccn(Cc4ccc(S(C)(=O)=O)cc4)c(=O)c3c2)cc1` [Example 55, 2-(4-methane-sulfonylbenzyl)-1-oxo-1,2-dihydro-isoquinoline-7-carboxylic Acid 4-methylbenzyl-amide], for which the IC50 is more than 30 µM.

Consider `O=C(O)c1ccc(Cn2ccc3ccc(C(=O)NCc4cncnc4)cc3c2=O)cc1` [Example 28, 4-[1-oxo-7-[(pyrimidin-5-ylmethyl)carbamoyl]-1H-isoquinolin-2-ylmethyl]benzoic Acid], for which the IC50 worked out at 1.8 µM.

As to `N#Cc1ccc(Cn2ccc3ccc(C(=O)NCc4ccncc4)cc3c2=O)cc1` [Example 33, 2-(4-cyanobenzyl)-1-oxo-1,2-dihydro-isoquinoline-7-carboxylic Acid (pyridin-4-ylmethyl)amide], the IC50 turned out to be 1.3 µM.

On to `Cc1ccc(CNC(=O)c2ccc3ccn(CCOc4ccccc4)c(=O)c3c2)cc1` [Example 47, 1-oxo-2-(2-phenoxyethyl)-1,2-dihydroisoquinoline-7-carboxylic Acid 4-methylbenzamide], for which the IC50 is more than 10 µM.

On to `CS(=O)(=O)c1ccc(Cn2ccc3ccc(C(=O)NCc4cncnc4)cc3c2=O)cc1` [Example 54, 2-(4-methane-sulfonylbenzyl)-1-oxo-1,2-dihydro-isoquinoline-7-carboxylic Acid (pyrimidin-5-ylmethyl)amide], for which the IC50 is 35 µM.

For the compound `CSc1ccc(CNC(=O)c2ccc3ccn(CCOc4ccccc4)c(=O)c3c2)cc1` [Example 48, 1-oxo-2-(2-phenoxyethyl)-1,2-dihydroisoquinoline-7-carboxylic Acid 4-methylsulfanylbenzamide], the IC50 was 4.2 µM.

On to `O=C(NCc1cncnc1)c1ccc2ccn(CCOc3ccccc3)c(=O)c2c1` [Example 46, 1-oxo-2-(2-phenoxyethyl)-1,2-dihydroisoquinoline-7-carboxylic Acid (pyrimidin-5-ylmethyl)-amide], for which the IC50 was more than 100 µM.

As to `CS(=O)(=O)c1ccc(Cn2ccc3ccc(C(=O)NCc4cccnc4)cc3c2=O)cc1` [Example 50, 2-(4-methane-sulfonylbenzyl)-1-oxo-1,2-dihydro-isoquinoline-7-carboxylic Acid (pyridin-3-ylmethyl)amide], the IC50 amounted to 7.4 µM.

With `O=C(NCc1cccnc1)c1ccc2ccn(CCOc3ccccc3)c(=O)c2c1` [Example 42, 1-oxo-2-(2-phenoxyethyl)-1,2-dihydroisoquinoline-7-carboxylic Acid (pyridin-3-ylmethyl)amide], the IC50 came out at 55 µM.

Turning to `O=C(NCc1ccncc1)c1ccc2ccn(CCOc3ccccc3)c(=O)c2c1` [Example 41, 1-oxo-2-(2-phenoxyethyl)-1,2-dihydroisoquinoline-7-carboxylic Acid (pyridin-4-ylmethyl)amide], the IC50 is 26 µM.

On to `O=C(NCc1ccco1)c1ccc2ccn(Cc3ccc(-c4nn[nH]n4)cc3)c(=O)c2c1` [Example 62, 1-oxo-2-[4-(2H-tetrazol-5-yl)benzyl]-1,2-dihydroisoquinoline-7-carboxylic Acid (furan-2-ylmethyl)amide], for which the IC50 stood at 12 µM.

The experiment is the same for the next values; noted with them: Biological Table 2, compounds of Example 66; read-out: MMP-13CD IC50.
Take `O=c1c2cc(C#CCc3ccccc3)ccc2ccn1CC1CCCO1` (stereo not shown) [Example 66i, 7-(3-Phenyl-prop-1-ynyl)-2-(tetrahydro-furan-2-ylmethyl)-2H-isoquinolin-1-one]: the IC50 stood at 13 µM.

With `O=c1c2cc(C#CCc3ccccc3)ccc2ccn1CCCC(F)(F)F` [Example 66ai, 7-(3-Phenyl-prop-1-ynyl)-2-(4,4,4-trifluoro-butyl)-2H-isoquinolin-1-one], the IC50 amounted to 14 µM.

Regarding `O=c1c2cc(C#CCc3ccccc3)ccc2ccn1CCC1OCCO1` [Example 66m, 2-(2-1,3-Dioxolan-2-yl-ethyl)-7-(3-phenyl-prop-1-ynyl)-2H-isoquinolin-1-one], the IC50 amounted to 24 µM.

For the compound `CC1OCCCC1n1ccc2ccc(C#CCc3ccccc3)cc2c1=O` (stereo not shown) [Example 66g, 2-(2-Methyl-tetrahydro-pyran-3-yl)-7-(3-phenyl-prop-1-ynyl)-2H-isoquinolin-1-one], the IC50 is more than 30 µM.

In the case of `CCOC(=O)CCCCCn1ccc2ccc(C#CCc3ccccc3)cc2c1=O` [Example 66v, 6-[1-Oxo-7-(3-phenyl-prop-1-ynyl)-1H-isoquinolin-2-yl]-hexanoic acid ethyl ester], the IC50 was determined as 8.7 µM.

As to `COC(=O)Cn1ccc2ccc(C#CCc3ccccc3)cc2c1=O` [Example 66q, [1-Oxo-7-(3-phenyl-prop-1-ynyl)-1H-isoquinolin-2-yl]-acetic acid methyl ester], the IC50 was 22 µM.

As to `COCCn1ccc2ccc(C#CCc3ccccc3)cc2c1=O` [Example 66w, 2-(2-Methoxy-ethyl)-7-(3-phenyl-prop-1-ynyl)-2H-isoquinolin-1-one], the IC50 is more than 30 µM.

For `O=c1c2cc(C#CCc3ccccc3)ccc2ccn1CC1OCCO1` [Example 66n, 2-1,3-Dioxolan-2-ylmethyl-7-(3-phenyl-prop-1-ynyl)-2H-isoquinolin-1-one], the concentration for half-maximal inhibition (IC50) amounted to 24 µM.

On to `O=c1c2cc(C#CCc3ccccc3)ccc2ccn1Cc1ccccc1` [Example 66ag, 2-Benzyl-7-(3-phenyl-prop-1-ynyl)-2H-isoquinolin-1-one], for which the IC50 is 1.9 µM.

`COC(Cn1ccc2ccc(C#CCc3ccccc3)cc2c1=O)OC` [Example 66h, 2-(2,2-Dimethoxy-ethyl)-7-(3-phenyl-prop-1-ynyl)-2H-isoquinolin-1-one]: the IC50 stood at 34 µM.

In the case of `CCOC(=O)Cn1ccc2ccc(C#CCc3ccccc3)cc2c1=O` [Example 66x, [1-Oxo-7-(3-phenyl-prop-1-ynyl)-1H-isoquinolin-2-yl]-acetic acid ethyl ester], the IC50 was 11 µM.

`COc1ccc2nc(Cn3ccc4ccc(C#CCc5ccccc5)cc4c3=O)c(=O)oc2c1` [Example 66u, 7-Methoxy-3-[1-oxo-7-(3-phenyl-prop-1-ynyl)-1H-isoquinolin-2-ylmethyl]-1,4-benzoxazin-2-one]: the IC50 came to 11 µM.

`COC(=O)CCCCn1ccc2ccc(C#CCc3ccccc3)cc2c1=O` [Example 66p, 5-[1-Oxo-7-(3-phenyl-prop-1-ynyl)-1H-isoquinolin-2-yl]-pentanoic acid methyl ester]: the IC50 was found to be 9.4 µM.

Turning to `N#CCCCn1ccc2ccc(C#CCc3ccccc3)cc2c1=O` [Example 66c, 4-[1-Oxo-7-(3-phenyl-prop-1-ynyl)-1H-isoquinolin-2-yl]-butyronitrile], the IC50 was found to be 22.5 µM.

Take `N#CCCCCn1ccc2ccc(C#CCc3ccccc3)cc2c1=O` [Example 66j, 5-[1-Oxo-7-(3-phenyl-prop-1-ynyl)-1H-isoquinolin-2-yl]-pentanenitrile]: the IC50 was 11 µM.

Consider `N#CCCCCCn1ccc2ccc(C#CCc3ccccc3)cc2c1=O` [Example 66af, 6-[1-Oxo-7-(3-phenyl-prop-1-ynyl)-1H-isoquinolin-2-yl]-hexanenitrile], for which the IC50 came out at 8.6 µM.

As to `CCC(=O)Cn1ccc2ccc(C#CCc3ccccc3)cc2c1=O` [Example 66ab, 2-(2-Oxo-butyl)-7-(3-phenyl-prop-1-ynyl)-2H-isoquinolin-1-one], the IC50 came to 12 µM.

For the compound `O=c1c2cc(C#CCc3ccccc3)ccc2ccn1CC(O)CO` (stereo not shown) [Example 66e, 2-(2,3-Dihydroxy-propyl)-7-(3-phenyl-prop-1-ynyl)-2H-isoquinolin-1-one], the IC50 stood at 50 µM.

The experiment is the same for the next values; noted with them: read-out: IC50 with MMP-13 catalytic domain.
Consider `O=C(O)c1ccc(Cn2ccc3ccc(C#CCn4ccnc4)cc3c2=O)cc1` [Example 13, 4-[7-(3-Imidazol-1-ylprop-1-ynyl)-1-oxo-1H-isoquinolin-2-ylmethyl]benzoic Acid], for which the IC50 was found to be 0.0089 µM.

On to `NS(=O)(=O)c1ccc(Cn2ccc3ccc(C#CCc4ccccc4)cc3c2=O)cc1` [Example 5, 4-[1-Oxo-7-(3-phenyl-prop-1-ynyl)-1H-isoquinolin-2-ylmethyl]benzenesulfonamide], for which the IC50 was 0.036 µM.
